{
  "source": "ChEMBL document CHEMBL3616438",
  "about": "“Molecular modeling studies and synthesis of novel quinoxaline derivatives with potential anticancer activity as inhibitors of c-Met kinase” (Bioorg Med Chem, 2015)",
  "assay_type_in_all_cases": "functional, cell-based",
  "key": {"[1]": {"test_system": "MCF7", "test": "Cytotoxicity against human MCF7 cells assessed as inhibition of cell viability after 72 hrs by SRB assay"}, "[2]": {"test_system": "NCI-H460", "test": "Cytotoxicity against human NCI-H460 cells assessed as inhibition of cell viability after 72 hrs by SRB assay"}, "[3]": {"test_system": "SF-268", "test": "Cytotoxicity against human SF268 cells assessed as inhibition of cell viability after 72 hrs by SRB assay"}},
  "data": [
    {"smiles": "O=c1[nH]c2ccc(Br)cc2nc1/C=C/c1ccc(O)cc1", "values": [
      {"measurement": "IC50", "setting": "[1]", "result": 0.02281, "unit": "µg/mL"},
      {"measurement": "IC50", "setting": "[2]", "result": 0.02281, "unit": "µg/mL"},
      {"measurement": "IC50", "setting": "[3]", "result": 0.02283, "unit": "µg/mL"}
    ]},
    {"smiles": "Cc1nc2cc(Br)ccc2n(CC(=O)NN)c1=O", "values": [
      {"measurement": "IC50", "setting": "[1]", "result": 0.01, "unit": "µg/mL"},
      {"measurement": "IC50", "setting": "[2]", "result": 0.02, "unit": "µg/mL"},
      {"measurement": "IC50", "setting": "[3]", "result": 0.06, "unit": "µg/mL"}
    ]},
    {"smiles": "COc1ccc(/C=C/c2nc3cc(Br)ccc3[nH]c2=O)cc1", "values": [
      {"measurement": "IC50", "setting": "[1]", "result": 0.06, "unit": "µg/mL"},
      {"measurement": "IC50", "setting": "[2]", "result": 0.06, "unit": "µg/mL"},
      {"measurement": "IC50", "setting": "[3]", "result": 0.2, "unit": "µg/mL"}
    ]},
    {"smiles": "Cc1nc2cc(Br)ccc2n2nnnc12", "values": [
      {"measurement": "IC50", "setting": "[1]", "result": 0.03309, "unit": "µg/mL"},
      {"measurement": "IC50", "setting": "[2]", "result": 0.0208, "unit": "µg/mL"},
      {"measurement": "IC50", "setting": "[3]", "result": 0.0203, "unit": "µg/mL"}
    ]},
    {"smiles": "O=c1[nH]c2ccc(Br)cc2nc1/C=C/c1ccc(Br)cc1", "values": [
      {"measurement": "IC50", "setting": "[1]", "result": 0.03223, "unit": "µg/mL"},
      {"measurement": "IC50", "setting": "[2]", "result": 0.03632, "unit": "µg/mL"},
      {"measurement": "IC50", "setting": "[3]", "result": 0.04066, "unit": "µg/mL"}
    ]},
    {"smiles": "Cc1nc2cc(Br)ccc2nc1N1CCCCC1", "values": [
      {"measurement": "IC50", "setting": "[1]", "result": 0.03361, "unit": "µg/mL"},
      {"measurement": "IC50", "setting": "[2]", "result": 0.04032, "unit": "µg/mL"},
      {"measurement": "IC50", "setting": "[3]", "result": 0.03044, "unit": "µg/mL"}
    ]},
    {"smiles": "Cc1nc2cc(Br)ccc2nc1Nc1ccc(S(=O)(=O)N2CCCCC2)cc1", "values": [
      {"measurement": "IC50", "setting": "[1]", "result": 0.00162, "unit": "µg/mL"},
      {"measurement": "IC50", "setting": "[2]", "result": 0.67, "unit": "µg/mL"},
      {"measurement": "IC50", "setting": "[3]", "result": 0.0018, "unit": "µg/mL"}
    ]},
    {"smiles": "Cc1ccc(/C=C/c2nc3cc(Br)ccc3[nH]c2=O)cc1", "values": [
      {"measurement": "IC50", "setting": "[1]", "result": 0.02221, "unit": "µg/mL"},
      {"measurement": "IC50", "setting": "[2]", "result": 0.00812, "unit": "µg/mL"},
      {"measurement": "IC50", "setting": "[3]", "result": 0.0168, "unit": "µg/mL"}
    ]},
    {"smiles": "Cc1nc2cc(Br)ccc2nc1Oc1ccc(N)cc1", "values": [
      {"measurement": "IC50", "setting": "[1]", "result": 0.81, "unit": "µg/mL"},
      {"measurement": "IC50", "setting": "[2]", "result": 0.52, "unit": "µg/mL"},
      {"measurement": "IC50", "setting": "[3]", "result": 0.08, "unit": "µg/mL"}
    ]},
    {"smiles": "Cc1cc(C)n(-c2nc3ccc(Br)cc3nc2C)n1", "values": [
      {"measurement": "IC50", "setting": "[1]", "result": 0.02355, "unit": "µg/mL"},
      {"measurement": "IC50", "setting": "[2]", "result": 0.0346, "unit": "µg/mL"},
      {"measurement": "IC50", "setting": "[3]", "result": 0.04541, "unit": "µg/mL"}
    ]},
    {"smiles": "COc1cccc2c1C(=O)c1c(O)c3c(c(O)c1C2=O)C[C@@](O)(C(=O)CO)C[C@@H]3O[C@H]1C[C@H](N)[C@H](O)[C@H](C)O1", "note": "[DOXORUBICIN]", "values": [
      {"measurement": "IC50", "setting": "[1]", "result": 0.04, "unit": "µg/mL"},
      {"measurement": "IC50", "setting": "[2]", "result": 0.09, "unit": "µg/mL"},
      {"measurement": "IC50", "setting": "[3]", "result": 0.09, "unit": "µg/mL"}
    ]},
    {"smiles": "Cc1nc2cc(Br)ccc2nc1Oc1ccc(/C=N\\c2ccc(Cl)cc2)cc1", "values": [
      {"measurement": "IC50", "setting": "[1]", "result": 0.01263, "unit": "µg/mL"},
      {"measurement": "IC50", "setting": "[2]", "result": 0.01866, "unit": "µg/mL"},
      {"measurement": "IC50", "setting": "[3]", "result": 0.03043, "unit": "µg/mL"}
    ]},
    {"smiles": "Cc1nc2cc(Br)ccc2nc1NN", "values": [
      {"measurement": "IC50", "setting": "[1]", "result": 0.02427, "unit": "µg/mL"},
      {"measurement": "IC50", "setting": "[2]", "result": 0.02062, "unit": "µg/mL"},
      {"measurement": "IC50", "setting": "[3]", "result": 0.01682, "unit": "µg/mL"}
    ]},
    {"smiles": "Cc1nc2cc(Br)ccc2nc1Sc1ccccc1", "values": [
      {"measurement": "IC50", "setting": "[1]", "result": 0.01222, "unit": "µg/mL"},
      {"measurement": "IC50", "setting": "[2]", "result": 0.01842, "unit": "µg/mL"},
      {"measurement": "IC50", "setting": "[3]", "result": 0.01816, "unit": "µg/mL"}
    ]},
    {"smiles": "Cc1nc2cc(Br)ccc2nc1Oc1ccc(C=O)cc1", "values": [
      {"measurement": "IC50", "setting": "[1]", "result": 0.03278, "unit": "µg/mL"},
      {"measurement": "IC50", "setting": "[2]", "result": 0.02845, "unit": "µg/mL"},
      {"measurement": "IC50", "setting": "[3]", "result": 0.0405, "unit": "µg/mL"}
    ]},
    {"smiles": "CCOC(=O)Cn1c(=O)c(C)nc2cc(Br)ccc21", "values": [
      {"measurement": "IC50", "setting": "[1]", "result": 0.0224, "unit": "µg/mL"},
      {"measurement": "IC50", "setting": "[2]", "result": 0.01042, "unit": "µg/mL"},
      {"measurement": "IC50", "setting": "[3]", "result": 0.00863, "unit": "µg/mL"}
    ]},
    {"smiles": "Cc1nc2cc(Br)ccc2nc1Oc1ccc(/N=C\\c2ccc(Cl)cc2)cc1", "values": [
      {"measurement": "IC50", "setting": "[1]", "result": 0.08, "unit": "µg/mL"},
      {"measurement": "IC50", "setting": "[2]", "result": 0.08, "unit": "µg/mL"},
      {"measurement": "IC50", "setting": "[3]", "result": 0.02, "unit": "µg/mL"}
    ]},
    {"smiles": "Cc1nc2cc(Br)ccc2nc1Oc1ccccc1N", "values": [
      {"measurement": "IC50", "setting": "[1]", "result": 0.02, "unit": "µg/mL"},
      {"measurement": "IC50", "setting": "[2]", "result": 0.03, "unit": "µg/mL"},
      {"measurement": "IC50", "setting": "[3]", "result": 0.06, "unit": "µg/mL"}
    ]}
  ]
}
